Source: patent US20100331315A1, “RHODANINES AND RELATED HETEROCYCLES AS KINASE INHIBITORS” (priority 2009, published 2010)
Where two headings read alike, the source gives them in different places.

Key:
[1] = system: MiaPaca human pancreatic carcinoma cells; assay: Alamar Blue cell proliferation assay, MiaPaCa; format: cell-based
Method: (§1) A representative cell-proliferation assay protocol using Alamar Blue dye (stored at 4° C., use 20 ul per well) is described hereafter.
(§2) a. Split and trypsinize cells.
(§3) b. Count cells using hemocytometer.
(§4) c. Plate 4,000-5,000 cells per well in 100 μl of medium and seed into a 96-well plate according to the following plate layout. Add cell culture medium only to wells B10 to B12. Wells B1 to B9 have cells but no compound added.
(§5) d. Add 100 μl of 2× drug dilution to each well in a concentration shown in the plate layout above. At the same time, add 100 μl of media into the control wells (wells B10 to B12). Total volume is 200 μl/well.
(§6) e. Incubate four (4) days at 37° C., 5% CO2 in a humidified incubator.
(§7) f. Add 20 μl Alamar Blue reagent to each well.
(§8) g. Incubate for four (4) hours at 37° C., 5% CO2 in a humidified incubator.
(§9) h. Record fluorescence at an excitation wavelength of 544 nm and emission wavelength of 590 nm using a microplate reader.
(§10) In the assays, cells are cultured with a test compound for approximately four days, the dye is then added to the cells and fluorescence of […] dye is detected after approximately four hours. Different types of cells can be utilized in the assays (e.g., HCT-116 human colorectal carcinoma cells, PC-3 human prostatic cancer cells and MiaPaca human pancreatic carcinoma cells).

MV-4-11 = assay: Alamar Blue cell proliferation assay, MV-4-11; format: cell-based; conditions: Homo sapiens
Method: as §1, §2, §3, §4, §5, §6, §7, §8, §9, §10

MDAMB231 = assay: Alamar Blue cell proliferation assay, MDAMB231; format: cell-based; conditions: Homo sapiens
Method: as §1, §2, §3, §4, §5, §6, §7, §8, §9, §10

recombinant PIM-1 = recombinant PIM-1 (Homo sapiens, UniProt P11309); assay: PIM-1 assay (33P-ATP filter plate); format: biochemical; conditions: read-out: PIM1: IC50
Method: The following procedure was used to assay the PIM-1 kinase activity of compounds of the invention. Other methods for assaying PIM-1 and other PIM kinases, as well as methods to assay for activity against the various kinases are known in the art.
In a final reaction volume of 50 ul, recombinant PIM-1 (1 ng) was incubated with 12 mM MOPS pH 7.0, 0.4 mM EDTA, glycerol 1%, brij 35 0.002%, 2-mercaptoethanol 0.02%, BSA 0.2 mg/ml, 100 uM KKRNRTLTK, 10 mM MgAcetate, 15 uM ATP, [γ-^33P-ATP] (specific activity approx. 500 cpm/pmol), DMSO 4% and test inhibitor compound at the required concentration. The reaction was initiated by the addition of the Magnesium ATP mixture. After 40 min incubation at 23° C., the reactions were quenched by the addition of 100 ul 0.75% Phosphoric acid, and the labeled peptide collected by filtration through a phosphocellulose filter plate. The plate was washed 4 times with 0.075% phosphoric acid (100 ul per well) and then, after the addition of scintillation fluid (20 ul per well), the counts were measured by a scintillation counter.

K-562 = assay: Alamar Blue cell proliferation assay, K-562; format: cell-based; conditions: Homo sapiens
Method: as §1, §2, §3, §4, §5, §6, §7, §8, §9, §10

recombinant human CK2 = target: T1, recombinant human CK2 (Homo sapiens, UniProt P68400); assay: CK2 assay (cell-free, 33P-ATP filter plate); format: biochemical
T1 construct: purchased Upstate
Method: Modulatory activity of compounds described herein was assessed in vitro in cell-free CK2 assays by the following method.
Test compounds in aqueous solution were added at a volume of 10 microliters, to a reaction mixture comprising 10 microliters Assay Dilution Buffer (ADB; 20 mM MOPS, pH 7.2, 25 mM beta-glycerolphosphate, 5 mM EGTA, 1 mM sodium orthovanadate and 1 mM dithiothreitol), 10 microliters of substrate peptide (RRRDDDSDDD, dissolved in ADB at a concentration of 1 mM), 10 microliters of recombinant human CK2 (25 ng dissolved in ADB; Upstate). Reactions were initiated by the addition of 10 microliters of ATP Solution (90% 75 mM MgCl2, 75 micromolar ATP dissolved in ADB; 10% [γ-^33P]ATP (stock 1 mCi/100 μl; 3000 Ci/mmol (Perkin Elmer) and maintained for 10 minutes at 30 degrees C. The reactions were quenched with 100 microliters of 0.75% phosphoric acid, then transferred to and filtered through a phosphocellulose filter plate (Millipore). After washing each well 5 times with 0.75% phosphoric acid, the plate was dried under vacuum for 5 min and, following the addition of 15 ul of scintillation fluid to each well, the residual radioactivity was measured using a Wallac luminescence counter.

[2] = system: PC-3 human prostatic cancer cells; assay: Alamar Blue cell proliferation assay, PC3; format: cell-based
Method: as §1, §2, §3, §4, §5, §6, §7, §8, §9, §10

recombinant human PIM2 = recombinant human PIM2 (Homo sapiens, UniProt Q9P1W9); assay: PIM-2 assay (33P-ATP filter plate); format: biochemical
Method: PIM-2 Assay Method: Test compounds dissolved and diluted in DMSO (2 μl) were added to a reaction mixture comprising 10 μl of 5× Reaction Buffer (40 mM MOPS pH 7.0, 5 mM EDTA), 10 μl of recombinant human PIM2 solution (4 ng PIM-2 dissolved in dilution buffer (20 mM MOPS pH 7.0; EDTA 1 mM; 5% Glycerol; 0.01% Brij 35; […]; […] 2-mercaptoethanol; 1 mg/ml BSA)) and 8 ul of water. Reactions were initiated by the addition of 10 ul of ATP Solution (49% (15 mM MgCl2; 75 uM ATP) 1% ([γ-^33P]ATP: Stock 1 mCi/1000; 3000Ci/mmol (Perkin Elmer)) and 10 ul of substrate peptide solution (RSRSSYPAGT, dissolved in water at a concentration of 1 mM), Reactions were maintained for 10 min at 30° C. The reactions were quenched with 100 ul of 0.75% Phosphoric acid, then transferred to and filtered through a Phosphocellulose filter plate (Millipore, MSPH-N6B-50). After washing each well 4 times with 0.75% Phosphoric acid, scintillation fluid (20 uL) was added to each well and the residual radioactivity was measured using a Wallac luminescence counter.

[3] = MIA PaCa-2, Table 1, read-out: AB: MiaPaCa IC50
[4] = MV4-11, MV-4-11, Table 1, read-out: AB: MV-4-11 IC50
[5] = MDA-MB-231, MDAMB231, Table 1, read-out: AB: MDAMB231 IC50
[6] = K562, K-562, Table 1, read-out: AB: K-562 IC50
[7] = PC-3, PC3, Table 1, read-out: AB: PC3
[8] = MIA PaCa-2, Table 2, read-out: AB: MiaPaCa IC50
[9] = MV4-11, MV-4-11, Table 2, read-out: AB: MV-4-11 IC50
[10] = MDA-MB-231, MDAMB231, Table 2, read-out: AB: MDAMB231 IC50
[11] = K562, K-562, Table 2, read-out: AB: K-562 IC50
[12] = PC3, Table 2, read-out: AB: PC3 IC50

Chain of recombinant human PIM2 (Q9P1W9 whole entry): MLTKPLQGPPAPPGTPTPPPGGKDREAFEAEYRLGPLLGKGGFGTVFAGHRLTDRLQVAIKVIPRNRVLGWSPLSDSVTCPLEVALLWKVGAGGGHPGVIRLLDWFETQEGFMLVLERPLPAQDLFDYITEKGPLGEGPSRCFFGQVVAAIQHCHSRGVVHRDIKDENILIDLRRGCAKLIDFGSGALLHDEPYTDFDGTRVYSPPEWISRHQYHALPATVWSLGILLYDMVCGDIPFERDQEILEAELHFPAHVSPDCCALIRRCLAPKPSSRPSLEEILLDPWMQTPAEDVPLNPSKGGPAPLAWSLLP
T1 sequence (P68400 whole entry): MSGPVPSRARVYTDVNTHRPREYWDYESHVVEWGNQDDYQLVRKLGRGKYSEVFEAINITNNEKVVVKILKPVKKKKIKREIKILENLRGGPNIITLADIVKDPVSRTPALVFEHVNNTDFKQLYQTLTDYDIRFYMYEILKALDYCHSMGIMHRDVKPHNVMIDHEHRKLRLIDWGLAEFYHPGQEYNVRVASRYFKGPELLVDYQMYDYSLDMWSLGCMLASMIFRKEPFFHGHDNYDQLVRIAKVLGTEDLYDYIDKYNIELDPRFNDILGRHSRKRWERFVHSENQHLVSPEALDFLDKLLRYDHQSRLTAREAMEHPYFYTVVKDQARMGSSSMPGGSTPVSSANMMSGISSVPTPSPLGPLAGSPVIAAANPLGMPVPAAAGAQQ
T1 sequence (P67870 whole entry partner): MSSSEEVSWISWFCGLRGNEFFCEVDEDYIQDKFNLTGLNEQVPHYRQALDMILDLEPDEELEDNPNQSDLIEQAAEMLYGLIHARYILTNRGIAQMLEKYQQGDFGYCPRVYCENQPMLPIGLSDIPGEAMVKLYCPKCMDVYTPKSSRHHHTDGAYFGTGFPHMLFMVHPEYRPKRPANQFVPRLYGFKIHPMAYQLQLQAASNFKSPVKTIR
Chain of recombinant PIM-1 (P11309 whole entry): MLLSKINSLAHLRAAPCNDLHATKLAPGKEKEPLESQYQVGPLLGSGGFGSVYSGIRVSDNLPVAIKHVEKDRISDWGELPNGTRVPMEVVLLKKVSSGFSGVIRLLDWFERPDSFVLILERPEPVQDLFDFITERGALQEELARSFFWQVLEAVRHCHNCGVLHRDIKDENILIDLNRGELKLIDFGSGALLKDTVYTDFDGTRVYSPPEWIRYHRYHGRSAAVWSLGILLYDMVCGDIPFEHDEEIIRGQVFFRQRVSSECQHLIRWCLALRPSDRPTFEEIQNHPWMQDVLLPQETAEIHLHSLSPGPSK

IC50 [1, 3] [µM]	IC50 (MV-4-11; [4]) [µM]	IC50 (MDAMB231; [5]) [µM]	IC50 (recombinant PIM-1; Table 1) [µM]	IC50 (K-562; [6]) [µM]	IC50 (recombinant human CK2; Table 1) [µM]	IC50 [2, 7] [µM]	Compound	further results
2.29	0.406	> 10	0.005	2.89	0.047	> 30	CN1CCCN(C(=O)c2cccc(-c3ccc(/C=C4\SC(=S)NC4=O)o3)c2)CC1	IC50 (recombinant human PIM2; Table 1): 0.013 µM
> 10	> 10	> 10	0.074	> 10		> 30	O=C1NC(=S)S/C1=C\c1ccc(-c2cccc(C(=O)NCCN3CCCC3)c2)o1	IC50 (recombinant human PIM2; Table 1): 0.704 µM
> 10	> 10	> 10	0.009	> 10	0.412	> 30	O=C1NC(=S)S/C1=C\c1ccc(-c2cccc(C(=O)N3CCCNCC3)c2)o1	
> 10	> 10	> 10	0.038	> 10	0.444	> 30	CC(=O)NC1CCN(C(=O)c2cccc(-c3ccc(/C=C4\SC(=S)NC4=O)o3)c2)C1 (stereo not drawn)	
> 10	9.5	> 10	0.013	> 10	0.012	> 30	O=C1NC(=S)S/C1=C\c1ccc(-c2cccc(C(=O)N3CC[C@H](F)C3)c2)o1	
> 10	> 10	> 10	0.04	> 10	0.026	> 30	O=C1NC(=S)S/C1=C\c1ccc(-c2cccc(C(=O)N3CC[C@@H](F)C3)c2)o1	
> 10	> 10	> 10	0.028	> 10	0.264	> 30	CCNC(=O)c1cccc(-c2ccc(/C=C3\SC(=S)NC3=O)o2)c1	
> 10	> 10	> 10	0.031	> 10	0.123	> 30	COCCNC(=O)c1cccc(-c2ccc(/C=C3\SC(=S)NC3=O)o2)c1	
> 10	0.175	> 10	0.012	> 10	0.037	> 30	O=C1NC(=S)S/C1=C\c1ccc(-c2cccc(C(=O)N3CCC[C@H]3CO)c2)o1	
> 10	> 10	> 10	0.146	> 10	0.266	> 30	O=C1NC(=S)S/C1=C\c1ccc(-c2cccc(C(=O)NNc3ccnc4cc(Cl)ccc34)c2)o1	
> 10	> 10	> 10	0.036	> 10	0.094	> 30	CN(C)NC(=O)c1cccc(-c2ccc(/C=C3\SC(=S)NC3=O)o2)c1	
> 10	> 10	> 10	0.086	> 10	0.551	> 30	O=C1NC(=S)S/C1=C\c1ccc(-c2cccc(C(=O)NN3CCCCC3)c2)o1	
> 10	> 10	> 10	0.162	> 10	0.288	> 30	O=C1NC(=S)S/C1=C\c1ccc(-c2cccc(C(=O)NN3CCN(CCO)CC3)c2)o1	
> 10	> 10	> 10	0.199	> 10	0.027	> 30	O=C1NC(=S)S/C1=C\c1ccc(-c2cc(C(=O)O)ccc2Cl)o1	
> 10	> 10	> 10	0.004	> 10	0.004	> 10	NC(=O)c1cccc(-c2ccc(/C=C3\SC(=S)NC3=O)o2)c1	
> 10	> 10	> 10	0.059	> 10	0.004	> 10	O=C1NC(=S)S/C1=C\c1ccc(-c2ccccc2)o1	
							O=C1NC(=O)/C(=C\c2ccc(-c3ccc(C(=O)O)cc3)o2)S1	IC50 [1, 8]: > 10 µM; IC50 (MV-4-11; [9]): > 1 µM; IC50 (MDAMB231; [10]): > 10 µM; IC50 (recombinant PIM-1; Table 2): 0.041 µM; IC50 (K-562; [11]): > 10 µM; IC50 (recombinant human CK2; Table 2): 0.009 µM; IC50 [2, 12]: > 30 µM
							CN1CCCN(C(=O)c2cccc(-c3ccc(/C=C4/SC(=O)NC4=O)o3)c2)CC1	IC50 [1, 8]: > 10 µM; IC50 (MV-4-11; [9]): > 1 µM; IC50 (MDAMB231; [10]): > 10 µM; IC50 (recombinant PIM-1; Table 2): 0.111 µM; IC50 (K-562; [11]): > 10 µM; IC50 (recombinant human CK2; Table 2): 0.011 µM; IC50 [2, 12]: > 30 µM
							CN1CCCN(C(=O)c2ccc(-c3ccc(/C=C4/SC(=O)NC4=O)o3)cc2)CC1	IC50 [1, 8]: > 10 µM; IC50 (MV-4-11; [9]): > 1 µM; IC50 (MDAMB231; [10]): > 10 µM; IC50 (recombinant PIM-1; Table 2): 0.266 µM; IC50 (K-562; [11]): > 10 µM; IC50 (recombinant human CK2; Table 2): 0.43 µM; IC50 [2, 12]: > 30 µM
							CN1CCCN(c2cncc(-c3cccc(/C=C4\SC(=O)N(C)C4=O)c3)n2)CC1	IC50 (recombinant PIM-1; Table 5): 0.44 µM; IC50 (recombinant human CK2; Table 5): > 5 µM; IC50 (recombinant human PIM2; Table 5): 2.35 µM
							CN1CCCN(c2cncc(-c3ccc(/C=C4\SC(=S)NC4=O)c(F)c3)n2)CC1	IC50 (recombinant PIM-1; Table 5): 0.05 µM; IC50 (recombinant human CK2; Table 5): 0.32 µM; IC50 (recombinant human PIM2; Table 5): 0.19 µM
							CN1CCCN(c2cncc(-c3ccc(/C=C4/SC(=O)NC4=O)c(F)c3)n2)CC1	IC50 (recombinant PIM-1; Table 5): 1.18 µM; IC50 (recombinant human CK2; Table 5): > 5 µM; IC50 (recombinant human PIM2; Table 5): > 2.5 µM
							COc1cc(OC)cc(C(=O)N2CCCN(c3cncc(-c4cc(/C=C5/SC(=O)NC5=O)ccc4F)n3)CC2)c1	IC50 (recombinant human CK2; Table 5): 0.181 µM; IC50 (recombinant human PIM2; Table 5): 0.175 µM
							COc1ccc(/C=C2\SC(=O)NC2=O)cc1-c1cncc(N2CCCNCC2)n1	IC50 (recombinant human CK2; Table 6): 0.472 µM; inhibition at 2.5 µM (recombinant human PIM2; @ 2.5 uM, Table 6, read-out: PIM2: % inh @ 2.5 uM): 98.5%
